# Test results from patent publication US8563542B2 (Cyclacel Limited, priority 2007, dated 2013).
# Target: T1, AA (Homo sapiens, UniProt O14965)
# T1 sequence (O14965 1-403): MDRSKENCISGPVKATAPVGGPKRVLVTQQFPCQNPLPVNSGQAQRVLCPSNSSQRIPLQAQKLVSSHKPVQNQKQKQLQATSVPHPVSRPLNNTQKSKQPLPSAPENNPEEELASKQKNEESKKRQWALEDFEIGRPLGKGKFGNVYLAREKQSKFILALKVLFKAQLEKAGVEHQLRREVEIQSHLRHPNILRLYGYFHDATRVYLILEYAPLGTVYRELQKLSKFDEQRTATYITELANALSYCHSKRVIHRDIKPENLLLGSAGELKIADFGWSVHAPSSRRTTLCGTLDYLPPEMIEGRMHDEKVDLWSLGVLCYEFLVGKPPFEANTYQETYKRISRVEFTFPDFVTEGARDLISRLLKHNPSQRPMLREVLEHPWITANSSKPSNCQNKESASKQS
# Assay: AA IC50 (Table 1; no method given)
# Type: biochemical
# Conditions: Table 2, AurA IC50; class symbols; read-out: AurA IC50
row,Structure (SMILES),IC50 [µM]
1,"COc1cc(C(=O)NC2CCN(C)CC2)ccc1Nc1ncc2c(n1)N(Cc1ccc(OC)c(OC)c1)CC(C)C(=O)N2C (stereo not shown) [compound 44, 4-[9-(3,4-Dimethoxy-benzyl)-5,7-dimethyl-6-oxo-6,7,8,9-tetrahydro-5H-pyrimido[4,5-b][1,4]diazepin-2-ylamino]-3-methoxy-N-(1-methyl-piperidin-4-yl)-benzamide]",< 10
2,"COc1ccc(CN2CC(C)C(=O)N(C)c3cnc(Nc4ccc(C(=O)O)cc4)nc32)cc1OC (stereo not shown) [compound 45, 4-[9-(3,4-Dimethoxy-benzyl)-5,7-dimethyl-6-oxo-6,7,8,9-tetrahydro-5H-pyrimido[4,5-b][1,4]diazepin-2-ylamino]-benzoic acid]",< 10
3,"CN1C(=O)C2(CCCC2)CN(C2CCCC2)c2nc(Nc3ccc4c(c3)CS(=O)(=O)C4)ncc21 [compound 118, (9-Cyclopentyl-2-(2,2-dioxo-2,3-dihydro-1H-2lambda*6*-benzo[c]thiophen-5-ylamino)5-methyl-6-oxo-6,7,8,9-tetrahydro-5H-spiro[pyrimido[4,5-b][1,4]diazepin-3,1′-cyclopentane]]",< 1
4,"CN1C(=O)CCN(C(C)(C)C)c2nc(Nc3ccc4c(c3)CS(=O)(=O)C4)ncc21 [compound 121, 9-tert-Butyl-2-(2,2-dioxo-2,3-dihydro-1H-2lambda*6*-benzo[c]thiophen-5-ylamino)-5-methyl-5,7,8,9-tetrahydro-pyrimido[4,5-b][1,4]diazepin-6-one]",< 1
5,"CCN1C(=O)CCN(C(C)(C)C)c2nc(Nc3ccc4c(c3)CS(=O)(=O)C4)ncc21 [compound 122, 9-tert-Butyl-2-(2,2-dioxo-2,3-dihydro-1H-2lambda*6*-benzo[c]thiophen-5-ylamino)-5-ethyl-5,7,8,9-tetrahydro-pyrimido[4,5-b][1,4]diazepin-6-one]",< 1
6,"CCN1C(=O)CCNc2nc(Nc3ccc4c(c3)CS(=O)(=O)C4)ncc21 [compound 126, 2-(2,2-Dioxo-2,3-dihydro-1H-2lambda*6*- benzo[c]thiophen-5-ylamino)-5-ethyl-5,7,8,9-tetrahydro-pyrimido[4,5-b][1,4]diazepin-6-one]",< 10
7,"COc1ccccc1N1CCC(=O)N(C)c2cnc(Nc3ccc4c(c3)CS(=O)(=O)C4)nc21 [compound 133, 2-(2,2-Dioxo-2,3-dihydro-1H-2lambda*6*- benzo[c]thiophen-5-ylamino)-9-(2-methoxy-phenyl)-5-methyl-5,7,8,9-tetrahydro-pyrimido[4,5-b][1,4]diazepin-6-one]",< 1
8,"Cc1ccccc1N1CCC(=O)N(C)c2cnc(Nc3ccc4c(c3)CS(=O)(=O)C4)nc21 [compound 134, 2-(2,2-Dioxo-2,3-dihydro-1H-2lambda*6*- benzo[c]thiophen-5-ylamino)-5-methyl-9-o-tolyl-5,7,8,9-tetrahydro-pyrimido[4,5-b][1,4]diazepin-6-one]",< 1
9,"CN1C(=O)CCN(c2ccccc2Cl)c2nc(Nc3ccc4c(c3)CS(=O)(=O)C4)ncc21 [compound 135, 9-(2-Chloro-phenyl)-2-(2,2-dioxo-2,3-dihydro-1H-2lambda*6*-benzo[c]thiophen-5-ylamino)-5-methyl-5,7,8,9-tetrahydro-pyrimido[4,5-b][1,4]diazepin-6-one]",< 1
10,"COc1cccc(N2CCC(=O)N(C)c3cnc(Nc4ccc5c(c4)CS(=O)(=O)C5)nc32)c1 [compound 136, 2-(2,2-Dioxo-2,3-dihydro-1H-2lambda*6*- benzo[c]thiophen-5-ylamino)-9-(3-methoxy-phenyl)-5-methyl-5,7,8,9-tetrahydro-pyrimido[4,5-b][1,4]diazepin-6-one]",< 1
11,"CC(Cc1c[nH]c2ccccc12)Nc1ncc2c(n1)N(C1CCCC1)CCC(=O)N2C (stereo not shown) [compound 175, 9-Cyclopentyl-2-[2-(1H-indo1-3-yl)-1-methyl-ethylamino]-5-methyl-5,7,8,9-tetrahydro-pyrimido[4,5-b][1,4]diazepin-6-one]",< 10
12,"COc1ccc(N2CCN(c3ncc4c(n3)N(C3CCCC3)CCC(=O)N4C)CC2)cc1 [compound 213, 9-Cyclopentyl-2-[4-(4-methoxy-phenyl)-piperazin-1-yl]-5-methyl-5,7,8,9-tetrahydro-pyrimido[4,5-b][1,4]diazepin-6-one]",< 10
13,"CC(=O)Nc1ccc(Nc2ncc3c(n2)N(C2CCCC2)CCC(=O)N3C)cc1C(F)(F)F [compound 286, N-[4-(9-Cyclopentyl-5-methyl-6-oxo-6,7,8,9-tetrahydro-5H-pyrimido[4,5-b][1,4]diazepin-2-ylamino)-2-trifluoromethyl-phenyl]-acetamide]",< 1
14,"CN1C(=O)CCN(C2CCCC2)c2nc(Nc3ccc(S(=O)(=O)NC4CCS(=O)(=O)C4)cc3)ncc21 (stereo not shown) [compound 325, 4-(9-Cyclopentyl-5-methyl-6-oxo-6,7,8,9-tetrahydro-5H-pyrimido[4,5-b][1,4]diazepin-2-ylamino)-N-(1,1-dioxo-tetrahydro-1lambda*6*- thiophen-3-yl)-benzenesulfonamide]",< 1

# Further lines, results first:
row,IC50 [µM],Structure (SMILES)
1,< 1,"CN1C(=O)CCN(C(C)(C)C)c2nc(Nc3ccc(C(=O)O)cc3)ncc21 [compound 43, 4-(9-tert-Butyl-5-methyl-6-oxo-6,7,8,9-tetrahydro-5H-pyrimido[4,5-b][1,4]diazepin-2-ylamino)-benzoic acid]"
2,< 0.1,"CN1CCC(NC(=O)c2ccc(Nc3ncc4c(n3)N(C3CCCC3)CCC(=O)N4C)cc2)CC1 [compound 64, 4-(9-Cyclopentyl-5-methyl-6-oxo-6,7,8,9-tetrahydro-5H-pyrimido[4,5-b][1,4]diazepin-2-ylamino)-N-(1-methyl-piperidin-4-yl)-benzamide]"
3,< 1,"Cc1cc(Nc2ncc3c(n2)N(C2CCCC2)CCC(=O)N3C)ccc1Cl [compound 72, 2-(4-Chloro-3-methyl-phenylamino)-9-cyclopentyl-5-methyl-5,7,8,9-tetrahydro-pyrimido[4,5-b][1,4]diazepin-6-one]"
4,< 0.1,"CN1C(=O)CCN(c2ccccc2F)c2nc(Nc3ccc4c(c3)CS(=O)(=O)C4)ncc21 [compound 73, 2-(2,2-Dioxo-2,3-dihydro-1H-2lambda*6*- benzo[c]thiophen-5-ylamino)-9-(2-fluoro-phenyl)-5-methyl-5,7,8,9-tetrahydro-pyrimido[4,5-b][1,4]diazepin-6-one]"
5,< 0.1,"CN1C(=O)CCN(c2ccccc2)c2nc(Nc3ccc4c(c3)CS(=O)(=O)C4)ncc21 [compound 75, 2-(2,2-Dioxo-2,3-dihydro-1H-2lambda*6*- benzo[c]thiophen-5-ylamino)-5-methyl-9-phenyl-5,7,8,9-tetrahydro-pyrimido[4,5-b][1,4]diazepin-6-one]"
6,< 0.1,"CCC(CC)N1CCC(=O)N(C)c2cnc(Nc3ccc4c(c3)CS(=O)(=O)C4)nc21 [compound 79, 2-(2,2-Dioxo-2,3-dihydro-1H-2lambda*6*- benzo[c]thiophen-5-ylamino)-9-(1-ethyl-propyl)-5-methyl-5,7,8,9-tetrahydro-pyrimido[4,5-b][1,4]diazepin-6-one]"
7,< 1,"CC(C)C1CC(=O)N(C)c2cnc(Nc3ccc4c(c3)CS(=O)(=O)C4)nc2N1C1CCCC1 (stereo not shown) [compound 80, 9-Cyclopentyl-2-(2,2-dioxo-2,3-dihydro-1H-2lambda*6*-benzo[c]thiophen-5-ylamino)-8-isopropyl-5-methyl-5,7,8,9-tetrahydro-pyrimido[4,5-b][1,4]diazepin-6-one]"
8,< 1,"CN1C(=O)CCN(C2CCOCC2)c2nc(Nc3ccc4c(c3)CS(=O)(=O)C4)ncc21 [compound 81, 2-(2,2-Dioxo-2,3-dihydro-1H-2lambda*6*- benzo[c]thiophen-5-ylamino)-5-methyl-9-(tetrahydro-pyran-4-yl)-5,7,8,9-tetrahydro-pyrimido[4,5-b][1,4]diazepin-6-one]"
9,< 1,"CN1C(=O)CCN(Cc2ccccc2)c2nc(Nc3ccc4c(c3)CS(=O)(=O)C4)ncc21 [compound 82, 9-Benzyl-2-(2,2-dioxo-2,3-dihydro-1H-2lambda*6*-benzo[c]thiophen-5-ylamino)-5-methyl-5,7,8,9-tetrahydro-pyrimido[4,5-b][1,4]diazepin-6-one]"
10,< 1,"CN1CCN(S(=O)(=O)c2ccc(Nc3ncc4c(n3)N(C3CCCC3)CCC(=O)N4C)cc2)CC1 [compound 105, 9-Cyclopentyl-5-methyl-2-[4-(4-methyl-piperazine-1-sulfonyl)-phenylamino]-5,7,8,9-tetrahydro-pyrimido[4,5-b][1,4]diazepin-6-one]"
11,< 0.1,"CN1C(=O)CCN(CC2CC2)c2nc(Nc3ccc4c(c3)CS(=O)(=O)C4)ncc21 [compound 114, 9-Cyclopropylmethyl-2-(2,2-dioxo-2,3-dihydro-1H-2lambda*6*-benzo[c]thiophen-5-ylamino)-5-methyl-5,7,8,9-tetrahydro-pyrimido[4,5-b][1,4]diazepin-6-one]"
12,< 1,"CC(C)CCN1CCC(=O)N(C)c2cnc(Nc3ccc4c(c3)CS(=O)(=O)C4)nc21 [compound 116, 2-(2,2-Dioxo-2,3-dihydro-1H-2lambda*6*- benzo[c]thiophen-5-ylamino)-5-methyl-9-(3-methyl-butyl)-5,7,8,9-tetrahydro-pyrimido[4,5-b][1,4]diazepin-6-one]"
13,< 0.1,"CCC(CC)N1CCC(=O)N(CC)c2cnc(Nc3ccc4c(c3)CS(=O)(=O)C4)nc21 [compound 120, 2-(2,2-Dioxo-2,3-dihydro-1H-2lambda*6*- benzo[c]thiophen-5-ylamino)-5-ethyl-9-(1-ethyl-propyl)-5,7,8,9-tetrahydro-pyrimido[4,5-b][1,4]diazepin-6-one]"
14,< 0.1,Cc1cc(Nc2ncc3c(n2)N(C2CCCC2)CCC(=O)N3C)ccc1N(S(C)(=O)=O)S(C)(=O)=O [compound 288]
